According to ChEMBL document CHEMBL1201862, “PubChem BioAssay data set” (2004):
The source made the active and inactive calls.

What was measured:
[1] = molecular target: T1, Endoribonuclease toxin MazF (Escherichia coli K-12, UniProt P0AE70); experiment: activation of MazEF endoribonuclease cleavage – biochemical, fluorescence, single-stranded RNA substrate, uHTS hits, dose response (AID 588481); format: functional
T1 sequence (P0AE70 whole entry): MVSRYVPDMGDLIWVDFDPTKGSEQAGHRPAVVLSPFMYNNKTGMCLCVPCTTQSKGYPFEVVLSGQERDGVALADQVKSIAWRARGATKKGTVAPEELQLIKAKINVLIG

[2] = molecular target: T1, Endoribonuclease toxin MazF; experiment: substrate-only fluorescence increase artefacts – biochemical, single-stranded RNase substrate, counter-screen for MazEF activator project, dose response (AID 588502); format: functional
cells = format: functional, cell-based
[3] = molecular target: T2, Heat shock factor protein 1 (Mus musculus, UniProt P38532); experiment: decrease of HSF1-responsive luciferase luminescence – cell-based, NIH3T3, dose retest, confirmation (AID 2382); format: functional;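 also: NIH3T3 fibroblasts with HSF1-driven luciferase reporter stressed by proteasome inhibitor MG132; luminescence from HSF1-driven luciferase expression after 8 hours of MG132 stress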
T2 sequence (P38532 whole entry): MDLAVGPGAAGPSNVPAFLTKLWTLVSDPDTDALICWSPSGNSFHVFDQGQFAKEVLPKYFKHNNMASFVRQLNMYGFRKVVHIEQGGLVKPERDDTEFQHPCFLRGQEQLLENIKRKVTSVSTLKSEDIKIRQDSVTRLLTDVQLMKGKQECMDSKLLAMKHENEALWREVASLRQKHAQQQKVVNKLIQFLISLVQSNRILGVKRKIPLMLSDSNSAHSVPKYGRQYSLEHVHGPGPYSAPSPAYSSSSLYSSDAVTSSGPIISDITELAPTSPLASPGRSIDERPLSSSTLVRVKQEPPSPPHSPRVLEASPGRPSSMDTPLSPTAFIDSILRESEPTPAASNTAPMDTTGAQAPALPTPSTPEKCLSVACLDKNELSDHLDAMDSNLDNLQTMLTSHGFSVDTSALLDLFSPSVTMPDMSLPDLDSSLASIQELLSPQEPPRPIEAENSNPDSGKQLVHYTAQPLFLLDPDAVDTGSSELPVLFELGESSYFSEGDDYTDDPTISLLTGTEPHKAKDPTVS

Nonstructural protein 1 = Nonstructural protein 1 (Influenza A virus, UniProt Q194T2); format: functional, Influenza A virus (A/California/07/2009(H1N1))
Chain of Nonstructural protein 1 (Q194T2 whole entry): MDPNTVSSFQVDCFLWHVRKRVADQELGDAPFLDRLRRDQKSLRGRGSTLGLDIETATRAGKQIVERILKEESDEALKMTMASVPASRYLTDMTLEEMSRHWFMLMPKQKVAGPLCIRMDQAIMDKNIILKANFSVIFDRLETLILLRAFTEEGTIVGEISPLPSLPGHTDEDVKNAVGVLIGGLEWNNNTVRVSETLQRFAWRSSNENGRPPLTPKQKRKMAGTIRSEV

Vero = experiment: viability of Vero cells under compound – cytotoxicity control for flavivirus capping enzyme inhibitors (AID 588742); format: functional; conditions: Chlorocebus sabaeus
[4] = molecular target: T3, Histone-lysine N-methyltransferase NSD2 (Homo sapiens, UniProt O96028); format: biochemical
T3 sequence (O96028 whole entry): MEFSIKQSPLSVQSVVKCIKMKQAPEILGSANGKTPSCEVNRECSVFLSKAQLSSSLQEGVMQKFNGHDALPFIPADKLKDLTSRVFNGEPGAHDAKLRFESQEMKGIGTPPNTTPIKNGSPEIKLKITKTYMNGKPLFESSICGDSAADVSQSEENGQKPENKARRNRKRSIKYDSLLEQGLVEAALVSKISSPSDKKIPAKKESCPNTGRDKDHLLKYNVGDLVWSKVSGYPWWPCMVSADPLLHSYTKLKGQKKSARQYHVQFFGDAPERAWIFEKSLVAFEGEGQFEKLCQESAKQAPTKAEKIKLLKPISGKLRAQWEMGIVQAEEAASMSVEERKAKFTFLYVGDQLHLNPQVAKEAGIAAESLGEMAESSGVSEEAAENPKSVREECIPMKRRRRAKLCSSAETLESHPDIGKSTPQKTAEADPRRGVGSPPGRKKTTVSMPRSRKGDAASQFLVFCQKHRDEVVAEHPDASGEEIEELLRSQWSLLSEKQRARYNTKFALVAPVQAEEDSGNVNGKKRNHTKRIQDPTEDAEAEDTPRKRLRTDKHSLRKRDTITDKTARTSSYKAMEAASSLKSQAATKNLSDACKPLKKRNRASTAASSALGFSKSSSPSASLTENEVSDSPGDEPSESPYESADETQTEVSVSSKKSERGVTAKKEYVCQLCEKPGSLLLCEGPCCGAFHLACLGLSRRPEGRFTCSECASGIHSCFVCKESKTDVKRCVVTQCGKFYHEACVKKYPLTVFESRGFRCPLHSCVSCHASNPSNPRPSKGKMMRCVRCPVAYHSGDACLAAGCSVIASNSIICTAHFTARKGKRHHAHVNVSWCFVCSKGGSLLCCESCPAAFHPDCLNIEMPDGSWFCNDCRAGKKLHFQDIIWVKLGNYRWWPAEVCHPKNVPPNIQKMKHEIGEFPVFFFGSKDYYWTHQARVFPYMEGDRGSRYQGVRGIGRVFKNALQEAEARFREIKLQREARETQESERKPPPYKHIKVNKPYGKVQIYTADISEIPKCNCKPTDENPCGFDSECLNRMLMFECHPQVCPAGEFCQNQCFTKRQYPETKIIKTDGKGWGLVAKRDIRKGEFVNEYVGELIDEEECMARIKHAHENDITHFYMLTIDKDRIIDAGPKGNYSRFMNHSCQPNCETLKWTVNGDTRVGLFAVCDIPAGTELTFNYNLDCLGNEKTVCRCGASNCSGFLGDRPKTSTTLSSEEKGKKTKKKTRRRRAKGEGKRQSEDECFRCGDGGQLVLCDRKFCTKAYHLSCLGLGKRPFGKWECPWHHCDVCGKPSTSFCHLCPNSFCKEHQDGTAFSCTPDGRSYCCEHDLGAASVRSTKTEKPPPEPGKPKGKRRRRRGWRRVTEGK

[5] = molecular target: T4, Short transient receptor potential channel 4 (Mus musculus, UniProt Q9QUQ5); experiment: block of DAMGO-driven TRPC4 calcium entry – cell-based, HEK293 TRPC4/mu-opioid, Fluo-4 calcium, dose response (AID 434942); format: functional;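 also: potency of inhibitors blocking the TRPC4 calcium response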
T4 sequence (Q9QUQ5 whole entry): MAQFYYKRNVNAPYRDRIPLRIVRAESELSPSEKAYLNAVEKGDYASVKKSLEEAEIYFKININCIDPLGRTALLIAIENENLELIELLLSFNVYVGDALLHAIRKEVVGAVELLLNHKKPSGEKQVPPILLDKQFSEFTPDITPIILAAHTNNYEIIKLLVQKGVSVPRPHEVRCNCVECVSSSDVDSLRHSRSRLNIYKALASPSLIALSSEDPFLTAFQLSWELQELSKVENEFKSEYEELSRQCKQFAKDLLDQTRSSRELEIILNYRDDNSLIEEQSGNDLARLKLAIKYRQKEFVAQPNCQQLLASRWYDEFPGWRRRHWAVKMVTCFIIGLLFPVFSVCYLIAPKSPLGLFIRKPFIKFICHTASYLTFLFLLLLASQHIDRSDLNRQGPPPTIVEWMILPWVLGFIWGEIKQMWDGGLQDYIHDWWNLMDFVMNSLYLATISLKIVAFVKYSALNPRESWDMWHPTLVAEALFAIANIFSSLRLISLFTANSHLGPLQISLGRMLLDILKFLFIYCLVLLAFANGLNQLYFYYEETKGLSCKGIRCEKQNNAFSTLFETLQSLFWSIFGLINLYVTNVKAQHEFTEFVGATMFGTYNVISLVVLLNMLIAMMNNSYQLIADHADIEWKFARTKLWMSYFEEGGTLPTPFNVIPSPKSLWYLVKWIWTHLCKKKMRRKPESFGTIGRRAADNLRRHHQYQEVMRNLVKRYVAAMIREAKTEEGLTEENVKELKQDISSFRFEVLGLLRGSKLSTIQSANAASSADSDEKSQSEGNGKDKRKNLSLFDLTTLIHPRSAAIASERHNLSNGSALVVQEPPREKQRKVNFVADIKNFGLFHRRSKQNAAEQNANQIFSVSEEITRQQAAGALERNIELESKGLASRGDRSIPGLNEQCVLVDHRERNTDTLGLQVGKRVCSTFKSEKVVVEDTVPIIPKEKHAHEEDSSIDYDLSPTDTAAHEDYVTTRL

[6] = molecular target: T5, Corticotropin-releasing factor receptor 2/Corticotropin-releasing factor-binding protein (Homo sapiens, UniProt P24387+Q13324); experiment: Dose Response confirmation of uHTS hits for small molecule antagonists of the CRF-binding protein and CRF-R2 receptor complex.; format: functional; conditions: read-out: IC50_Mean
T5 sequence (Q13324 whole entry): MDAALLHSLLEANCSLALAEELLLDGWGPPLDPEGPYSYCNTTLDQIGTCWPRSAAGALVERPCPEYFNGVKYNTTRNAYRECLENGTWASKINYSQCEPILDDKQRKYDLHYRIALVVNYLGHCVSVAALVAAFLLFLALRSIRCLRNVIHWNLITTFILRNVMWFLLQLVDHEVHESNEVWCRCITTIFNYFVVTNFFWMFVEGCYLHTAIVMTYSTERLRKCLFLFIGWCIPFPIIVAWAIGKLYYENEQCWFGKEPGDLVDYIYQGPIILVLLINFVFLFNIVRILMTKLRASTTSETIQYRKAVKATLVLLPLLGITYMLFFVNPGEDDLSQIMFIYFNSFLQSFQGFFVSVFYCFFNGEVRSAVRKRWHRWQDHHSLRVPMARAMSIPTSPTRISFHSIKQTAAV
T5 sequence (P24387 whole entry): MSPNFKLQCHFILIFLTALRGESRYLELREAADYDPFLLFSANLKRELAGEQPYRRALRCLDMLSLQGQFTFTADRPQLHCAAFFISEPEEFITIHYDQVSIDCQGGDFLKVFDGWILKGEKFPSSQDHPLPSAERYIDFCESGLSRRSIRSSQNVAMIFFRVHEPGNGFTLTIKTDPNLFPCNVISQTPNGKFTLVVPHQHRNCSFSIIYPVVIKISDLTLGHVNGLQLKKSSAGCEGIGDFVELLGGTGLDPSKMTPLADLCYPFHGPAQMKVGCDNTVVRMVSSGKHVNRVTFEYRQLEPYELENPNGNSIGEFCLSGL

[7] = molecular target: T5, Corticotropin-releasing factor receptor 2/Corticotropin-releasing factor-binding protein; experiment: activators of CRF receptor 2 with binding protein – uHTS hits, confirmation (AID 602473); format: functional; conditions: read-out: EC50_Mean
Protein skinhead-1 = molecular target: T6, Protein skinhead-1 (Caenorhabditis elegans, UniProt P34707); format: functional
T6 sequence (P34707 whole entry): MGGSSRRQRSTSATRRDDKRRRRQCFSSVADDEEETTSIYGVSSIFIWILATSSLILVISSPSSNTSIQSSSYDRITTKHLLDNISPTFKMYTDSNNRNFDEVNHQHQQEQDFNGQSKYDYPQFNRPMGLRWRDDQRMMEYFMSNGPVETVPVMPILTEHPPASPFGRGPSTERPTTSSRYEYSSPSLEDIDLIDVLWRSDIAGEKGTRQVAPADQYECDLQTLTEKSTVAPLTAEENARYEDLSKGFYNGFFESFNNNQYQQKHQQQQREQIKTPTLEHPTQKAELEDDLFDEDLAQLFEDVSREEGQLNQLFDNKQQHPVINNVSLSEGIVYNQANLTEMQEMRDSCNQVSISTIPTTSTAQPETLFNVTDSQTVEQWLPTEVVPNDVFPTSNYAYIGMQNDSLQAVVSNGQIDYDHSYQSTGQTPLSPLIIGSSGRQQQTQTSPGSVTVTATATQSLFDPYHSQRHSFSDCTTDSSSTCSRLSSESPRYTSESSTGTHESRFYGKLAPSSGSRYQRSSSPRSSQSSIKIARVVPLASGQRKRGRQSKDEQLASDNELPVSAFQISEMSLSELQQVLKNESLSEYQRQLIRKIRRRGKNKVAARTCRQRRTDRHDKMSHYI

[8] = blockers of CRF-binding protein–CRF-R2 complex – cell-based, uHTS hits, 384-well, dose response (AID 651639); format: functional, Homo sapiens; conditions: read-out: IC50_Mean
Cytochrome P450 3A4 = Cytochrome P450 3A4 (Homo sapiens, UniProt P08684);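 also: CYP3A4 tested as one member of a cytochrome P450 panel screen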
Chain of Cytochrome P450 3A4 (P08684 whole entry): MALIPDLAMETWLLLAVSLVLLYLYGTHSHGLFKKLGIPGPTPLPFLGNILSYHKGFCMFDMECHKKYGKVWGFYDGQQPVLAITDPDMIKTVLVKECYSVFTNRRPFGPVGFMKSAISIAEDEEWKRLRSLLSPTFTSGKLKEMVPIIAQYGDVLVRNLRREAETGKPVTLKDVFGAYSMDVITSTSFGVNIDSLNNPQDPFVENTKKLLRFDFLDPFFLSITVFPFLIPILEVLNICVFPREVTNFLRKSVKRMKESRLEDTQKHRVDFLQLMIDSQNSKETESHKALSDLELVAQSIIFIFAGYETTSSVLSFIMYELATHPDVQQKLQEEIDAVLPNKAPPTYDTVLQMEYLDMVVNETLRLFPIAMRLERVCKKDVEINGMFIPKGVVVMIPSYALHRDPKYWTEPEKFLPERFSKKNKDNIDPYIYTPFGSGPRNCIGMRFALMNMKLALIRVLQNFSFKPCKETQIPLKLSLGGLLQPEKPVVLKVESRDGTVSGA

[9] = molecular target: T7, Calpain-2 catalytic subunit (Sus scrofa, UniProt P43367); experiment: m-calpain protease blockers, concentration series – biochemical, fluorogenic peptide substrate, dose response (AID 1420); format: functional
T7 sequence (P43367 whole entry): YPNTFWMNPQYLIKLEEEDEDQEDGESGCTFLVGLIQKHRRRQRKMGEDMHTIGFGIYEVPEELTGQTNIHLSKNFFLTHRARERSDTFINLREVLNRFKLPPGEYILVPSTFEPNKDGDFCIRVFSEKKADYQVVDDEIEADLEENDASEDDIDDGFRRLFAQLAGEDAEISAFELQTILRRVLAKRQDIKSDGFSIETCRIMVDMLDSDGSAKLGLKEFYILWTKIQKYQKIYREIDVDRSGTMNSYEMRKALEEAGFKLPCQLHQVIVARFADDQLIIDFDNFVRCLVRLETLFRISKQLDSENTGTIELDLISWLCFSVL

Cc1ccc2cc3c(N)c(C(=O)Nc4c(C)[nH]c(=O)[nH]c4=O)sc3nc2c1
EC50 [1]: > 99 µM (inactive) | EC50 [2]: > 99 µM (inactive)

Cc1ccc(O)c(/C=N/NC(=O)CN2CCCC2)c1
EC50 (cells): 104 µM (active) | EC50 [3]: > 195 µM (not active) | IC50 (Nonstructural protein 1): 15.3 µM (active)

CCOC(=O)C1=C(C)N=c2s/c(=C/c3cccc([N+](=O)[O-])c3O)c(=O)n2C1c1ccccc1 (centres undefined)
IC50 (Nonstructural protein 1): 22.1 µM (active) | CC50 (Vero): 31.1 µM (active) | AC50 [4]: > 20 µM (inactive)

Cc1cc([N+](=O)[O-])ccc1NCc1ccccc1
EC50 [5]: 0.841 µM (active) | IC50 [6]: 4.41 µM (active) | EC50 [7]: > 53 µM (inactive) | IC50 (Protein skinhead-1): 66.9 µM (inactive) | IC50 [8]: 8.31 µM (active) | AC50 (Cytochrome P450 3A4): 14.1 µM (inconclusive)

Cc1nn(-c2ccccc2)c2c1C(c1ccc(Br)s1)C(C#N)=C(N)O2 (centres undefined)
IC50 [9]: > 50 µM (not active) | IC50 (Nonstructural protein 1): 76.2 µM (active)

O=C1NC(=S)N(C2CC2)C(=O)/C1=C/NNC(=O)c1ccccc1O
IC50 (Nonstructural protein 1): 16.2 µM (active)

CC(=O)n1c(/C=N/c2ccc(Cl)cc2)c(O)c2ccccc21
EC50 [1]: > 99 µM (inactive) | EC50 [2]: 31.1 µM (inactive)
